Laboratory results: patent publication EP0049683A2, “Imidazo-rifamycines, process for their preparation, pharmaceutical preparations containing them and their use” (CIBA-GEIGY AG, priority 1980, dated 1982)
In brackets after ≈: the same amount, converted by molar mass.

Columns and labels:
Test in all cases: Agar dilution MIC in DST agar (Ericsson and Sherris)
Format in all cases: cell-based
Escherichia coli 2018 = details: for MIC: Escherichia coli, 2018, in vitro, read-out: MIC Esch. 2018; for MIC Esch. 2018: in vitro
Excerpt: (§1) Die antibiotische Aktivität der Testverbindungen in vitro wurde durch die Agarverdünnungsmethode nach Ericsson, H.M., und Sherris, S.C., 1971, Acta Path. Microb. Scand. Section B, Suppl. No. 217, Bd. 1-90, in DST Agara ermittelt. Die gefundenen, das Wachstum der Testorganismen noch hemmenden Minimalkonzentrationen (MIC = minimum inhibiting concentrations) werden in Mikrogramm pro Milliliter (µg/ml) für die geprüften Verbindungen in der Tabelle 1 angegeben.

Escherichia coli 205 = details: for MIC: Escherichia coli, 205, in vitro, read-out: MIC Esch. 205; for MIC Esch. 205: in vitro
Excerpt: as §1

Proteus morganii 1518 = details: for MIC: Morganella morganii, 1518, in vitro, read-out: MIC Prot. 1518; for MIC Prot. 1518: in vitro
Excerpt: as §1

Proteus morganii 2359 = details: for MIC: Morganella morganii, 2359, in vitro, read-out: MIC Prot. 2359; for MIC Prot. 2359: in vitro
Excerpt: as §1

[1] = test system: Pseudomonas aeruginosa K 799/61; details: for MIC: Pseudomonas aeruginosa, K799/61, read-out: MIC Pseu. 799; for MIC Pseu. 799: in vitro, agar dilution, DST agar
Excerpt: as §1

[2] = test system: Salmonella Typhimurium 277; details: in vitro; for MIC: Salmonella enterica, TYPHIMURIUM, read-out: MIC Salm. 277
Excerpt: as §1

[3] = test system: Staphylococcus aureus 10B; details: in vitro; for MIC: Staphylococcus aureus, 10B, read-out: MIC Staph. 10B
Excerpt: as §1

[4] = test system: Staphylococcus aureus 2999; details: for MIC: Staphylococcus aureus, 2999, in vitro, read-out: MIC Staph. 2999; for MIC Staph. 2999: in vitro
Excerpt: as §1

| Compound | MIC (Escherichia coli 2018) | MIC (Escherichia coli 205) | MIC (Proteus morganii 1518) | MIC (Proteus morganii 2359) | MIC [1] | MIC [2] | MIC [3] | MIC [4] | MIC Esch. 2018 (Escherichia coli 2018) | MIC Esch. 205 (Escherichia coli 205) | MIC Prot. 1518 (Proteus morganii 1518) | MIC Prot. 2359 (Proteus morganii 2359) | MIC Pseu. 799 [1] | MIC Salm. 277 [2] | MIC Staph. 10B [3] | MIC Staph. 2999 [4] |
| --- | --- | --- | --- | --- | --- | --- | --- | --- | --- | --- | --- | --- | --- | --- | --- | --- |
| CO[C@H]1/C=C/O[C@@]2(C)Oc3c(C)c(O)c4c(O)c(c5[nH]c(N6CCCCC6)nc5c4c3C2=O)NC(=O)/C(C)=C\C=C\[C@H](C)[C@H](O)[C@@H](C)[C@@H](O)[C@@H](C)[C@H](OC(C)=O)[C@@H]1C [Verbindung 21, 4-Piperidino-imidazolo[4,5-c]rifamycin SV] | 4 µg/mL (≈ 4.97 µM) | 4 µg/mL (≈ 4.97 µM) | 4 µg/mL (≈ 4.97 µM) | 4 µg/mL (≈ 4.97 µM) | 16 µg/mL (≈ 19.9 µM) | 16 µg/mL (≈ 19.9 µM) | 0.005 µg/mL (≈ 0.00621 µM) | 0.005 µg/mL (≈ 0.00621 µM) | – | – | – | – | – | – | – | – |
| 4-[4-(2-Methoxyethyl)-piperazinyl]-imidazolo[4,5-c]rifamycin SV [Verbindung 63] | – | – | – | – | – | – | – | – | 8 µg/mL | 16 µg/mL | 8 µg/mL | 8 µg/mL | 32 µg/mL | 32 µg/mL | 0.01 µg/mL | 0.01 µg/mL |
| CO[C@H]1/C=C/O[C@@]2(C)Oc3c(C)c(O)c4c(O)c(c5[nH]c(N6CCN(CC(C)=C(C)C)CC6)nc5c4c3C2=O)NC(=O)/C(C)=C\C=C\[C@H](C)[C@H](O)[C@@H](C)[C@@H](O)[C@@H](C)[C@H](OC(C)=O)[C@@H]1C [Verbindung 48] | 8 µg/mL (≈ 9.01 µM) | 32 µg/mL (≈ 36 µM) | 8 µg/mL (≈ 9.01 µM) | 8 µg/mL (≈ 9.01 µM) | 32 µg/mL (≈ 36 µM) | 32 µg/mL (≈ 36 µM) | 0.001 µg/mL (≈ 0.00113 µM) | 0.001 µg/mL (≈ 0.00113 µM) | – | – | – | – | – | – | – | – |
| 4-(N-Benzyl-N-methylamino)-imidazolo[4,5-c]rifamycin SV [Verbindung 12] | – | – | – | – | – | – | – | – | 8 µg/mL | 8 µg/mL | 1 µg/mL | 8 µg/mL | 8 µg/mL | 32 µg/mL | 0.001 µg/mL | 0.001 µg/mL |
| 4-(4-Morpholinocarbonylmethylpiperazinyl)-imidazolo-[4,5-c]rifamycin SV [Verbindung 73] | – | – | – | – | – | – | – | – | 128 µg/mL | 128 µg/mL | 32 µg/mL | 32 µg/mL | 128 µg/mL | 128 µg/mL | 0.05 µg/mL | 0.05 µg/mL |
| 4-[4-(2-Dimethylaminoethyl)-piperazinyl-imidazolo[4,5-cl- rifamycin SV [Verbindung 69] | – | – | – | – | – | – | – | – | 32 µg/mL | 32 µg/mL | 32 µg/mL | 32 µg/mL | 128 µg/mL | 128 µg/mL | 0.05 µg/mL | 0.05 µg/mL |
| CO[C@H]1/C=C/O[C@@]2(C)Oc3c(C)c(O)c4c(O)c(c5nc(N6CCN(c7ccccn7)CC6)[nH]c5c4c3C2=O)NC(=O)/C(C)=C\C=C\[C@H](C)[C@H](O)[C@@H](C)[C@@H](O)[C@@H](C)[C@H](OC(C)=O)[C@@H]1C [Verbindung 59, 4-[4-(2-Pyridyl)-piperazinyl]-imidazolo[4,5-c]rifamycin SV] | 8 µg/mL (≈ 9.06 µM) | 8 µg/mL (≈ 9.06 µM) | 2 µg/mL (≈ 2.26 µM) | 8 µg/mL (≈ 9.06 µM) | 8 µg/mL (≈ 9.06 µM) | 32 µg/mL (≈ 36.2 µM) | 0.01 µg/mL (≈ 0.0113 µM) | 0.01 µg/mL (≈ 0.0113 µM) | – | – | – | – | – | – | – | – |
| COC1C=COC2(C)Oc3c(C)c(O)c4c(O)c(c5nc(N(C)C(C)C)[nH]c5c4c3C2=O)NC(=O)C(C)=CC=CC(C)C(O)C(C)C(O)C(C)C(OC(C)=O)C1C (centres unmarked) [Verbindung 8, 4-(N-Isopropyl-N-methylamino)-imidazolo[4,5-c]rifamycin SV] | 8 µg/mL (≈ 10.1 µM) | 8 µg/mL (≈ 10.1 µM) | 8 µg/mL (≈ 10.1 µM) | 8 µg/mL (≈ 10.1 µM) | 8 µg/mL (≈ 10.1 µM) | 32 µg/mL (≈ 40.4 µM) | 0.01 µg/mL (≈ 0.0126 µM) | 0.01 µg/mL (≈ 0.0126 µM) | – | – | – | – | – | – | – | – |
| CO[C@H]1/C=C/O[C@@]2(C)Oc3c(C)c(O)c4c(O)c(c5nc(N6CCN(c7cccc(C(F)(F)F)c7)CC6)[nH]c5c4c3C2=O)NC(=O)/C(C)=C\C=C\[C@H](C)[C@H](O)[C@@H](C)[C@@H](O)[C@@H](C)[C@H](OC(C)=O)[C@@H]1C [Verbindung 53, 4-[4-(3-Trifluormethylphenyl)-piperazinyl]-imidazolo-[4,5-c]rifamycin SV] | 8 µg/mL (≈ 8.42 µM) | 8 µg/mL (≈ 8.42 µM) | 2 µg/mL (≈ 2.11 µM) | 8 µg/mL (≈ 8.42 µM) | 32 µg/mL (≈ 33.7 µM) | 32 µg/mL (≈ 33.7 µM) | 0.01 µg/mL (≈ 0.0105 µM) | 0.01 µg/mL (≈ 0.0105 µM) | – | – | – | – | – | – | – | – |
| CCCN(CCC)c1nc2c3c(O)c4c(O)c(C)c5c(c4c2[nH]1)C(=O)C(C)(OC=CC(OC)C(C)C(OC(C)=O)C(C)C(O)C(C)C(O)C(C)C=CC=C(C)C(=O)N3)O5 (centres unmarked) [Verbindung 7, 4-Dipropylamino-imidazolo[4,5-c]rifamycin SV] | 8 µg/mL (≈ 9.74 µM) | 8 µg/mL (≈ 9.74 µM) | 8 µg/mL (≈ 9.74 µM) | 8 µg/mL (≈ 9.74 µM) | 8 µg/mL (≈ 9.74 µM) | 16 µg/mL (≈ 19.5 µM) | 0.005 µg/mL (≈ 0.00609 µM) | 0.005 µg/mL (≈ 0.00609 µM) | – | – | – | – | – | – | – | – |
| 4-(4-Isopropylcarbamoylmethylpiperazinyl)-imidazolo-[4,5-c]rifamycin SV [Verbindung 72] | – | – | – | – | – | – | – | – | 32 µg/mL | 32 µg/mL | 32 µg/mL | 32 µg/mL | 64 µg/mL | 128 µg/mL | 0.05 µg/mL | 0.05 µg/mL |
| CO[C@H]1/C=C/O[C@@]2(C)Oc3c(C)c(O)c4c(O)c(c5[nH]c(N6CCC(N(C)C)CC6)nc5c4c3C2=O)NC(=O)/C(C)=C\C=C\[C@H](C)[C@H](O)[C@@H](C)[C@@H](O)[C@@H](C)[C@H](OC(C)=O)[C@@H]1C [Verbindung 23, 4-(4-Dimethylamino-l-piperidyl)-imidazolo[4,5-c]rifamycin SV] | 8 µg/mL (≈ 9.43 µM) | 16 µg/mL (≈ 18.9 µM) | 16 µg/mL (≈ 18.9 µM) | 16 µg/mL (≈ 18.9 µM) | 16 µg/mL (≈ 18.9 µM) | 16 µg/mL (≈ 18.9 µM) | 0.1 µg/mL (≈ 0.118 µM) | 0.1 µg/mL (≈ 0.118 µM) | – | – | – | – | – | – | – | – |
| 4-(4-Isobutyl-perhydrct-1,4-diazepinyl)-imidazolo(4,5-c]-rifamycin SV [Verbindung 77] | – | – | – | – | – | – | – | – | 8 µg/mL | 8 µg/mL | 8 µg/mL | 8 µg/mL | 8 µg/mL | 32 µg/mL | 0.01 µg/mL | 0.01 µg/mL |
| CCCN(CC1CC1)c1nc2c3c(O)c4c(O)c(C)c5c(c4c2[nH]1)C(=O)C(C)(OC=CC(OC)C(C)C(OC(C)=O)C(C)C(O)C(C)C(O)C(C)C=CC=C(C)C(=O)N3)O5 (centres unmarked) [Verbindung 11, 4-(N-Cyclopropylmethyl-N-propylamino)-imidazolo[4,5-c]rifamycin SV] | 8 µg/mL (≈ 9.6 µM) | 8 µg/mL (≈ 9.6 µM) | 2 µg/mL (≈ 2.4 µM) | 8 µg/mL (≈ 9.6 µM) | 8 µg/mL (≈ 9.6 µM) | 32 µg/mL (≈ 38.4 µM) | 0.01 µg/mL (≈ 0.012 µM) | 0.01 µg/mL (≈ 0.012 µM) | – | – | – | – | – | – | – | – |
| 4-[4-(2-Ethoxyethyl)-piperazinyl]-imidazolo[4,5-c] rifamycin SV [Verbindung 64] | – | – | – | – | – | – | – | – | 16 µg/mL | 16 µg/mL | 16 µg/mL | 16 µg/mL | 16 µg/mL | 64 µg/mL | 0.01 µg/mL | 0.005 µg/mL |
| 4-[4-(1-Methyl-2-dimethylaminoethyl)-piperazinyl]-imidazolo[4,5-c]rifamycin SV [Verbindung 74] | – | – | – | – | – | – | – | – | 32 µg/mL | 128 µg/mL | 32 µg/mL | 32 µg/mL | 128 µg/mL | 128 µg/mL | 0.5 µg/mL | 0.5 µg/mL |
| 4-(4-Butylpiperazinyl)-imidazolo[4,5-c]rifamycin SV [Verbindung 33] | – | – | – | – | – | – | – | – | 2 µg/mL | 8 µg/mL | 4 µg/mL | 4 µg/mL | 32 µg/mL | 32 µg/mL | 0.001 µg/mL | 0.001 µg/mL |
| CO[C@H]1/C=C/O[C@@]2(C)Oc3c(C)c(O)c4c(O)c(c5nc(N6CCN(Cc7ccccn7)CC6)[nH]c5c4c3C2=O)NC(=O)/C(C)=C\C=C\[C@H](C)[C@H](O)[C@@H](C)[C@@H](O)[C@@H](C)[C@H](OC(C)=O)[C@@H]1C [Verbindung 60, 4-[4-(2-Pyridylmethyl)-piperazinyl]-imidazolo[4,5-c]-rifamycin SV] | 32 µg/mL (≈ 35.7 µM) | 32 µg/mL (≈ 35.7 µM) | 32 µg/mL (≈ 35.7 µM) | 32 µg/mL (≈ 35.7 µM) | 64 µg/mL (≈ 71.3 µM) | 128 µg/mL (≈ 143 µM) | 0.02 µg/mL (≈ 0.0223 µM) | 0.02 µg/mL (≈ 0.0223 µM) | – | – | – | – | – | – | – | – |
| CO[C@H]1/C=C/O[C@@]2(C)Oc3c(C)c(O)c4c(O)c(c5[nH]c(N(C)CCN(C)C)nc5c4c3C2=O)NC(=O)/C(C)=C\C=C\[C@H](C)[C@H](O)[C@@H](C)[C@@H](O)[C@@H](C)[C@H](OC(C)=O)[C@@H]1C [Verbindung 17, 4-[N-Methyl-N-(2-dimethylaminoethyl)-amino]-imidazolo-[4,5-c]rifamycin SV] | 64 µg/mL (≈ 77.9 µM) | 32 µg/mL (≈ 38.9 µM) | 64 µg/mL (≈ 77.9 µM) | 32 µg/mL (≈ 38.9 µM) | 64 µg/mL (≈ 77.9 µM) | 64 µg/mL (≈ 77.9 µM) | 0.005 µg/mL (≈ 0.00608 µM) | 0.005 µg/mL (≈ 0.00608 µM) | – | – | – | – | – | – | – | – |
